{"source": "patent US8067036B2", "about": "“Gnetum extract” (Hosoda SHC Inc., priority 2004, dated 2011)", "key": {"[1]": {"test": "DPPH radical scavenging (antioxidative action) test", "assay_type": "biochemical", "conditions": "rank order among Gnetin C, Gnemonocide A, D", "protocol": "After 6 hours, decreases of absorbance (absorbance difference) at 517 nm of these reaction solutions were measured."}, "[2]": {"tested_on": "hay bacillus, Escherichia coli, sake yeast, penicillium", "test": "Antimicrobial action/effect (overall statement)", "assay_type": "cell-based", "conditions": "rank order among Gnetin C, Gnemonocide A, D"}}, "data": [{"substance": "Gnemonocide C", "values": [{"measurement": "order of scavenging radical action (antioxidative effect) to DPPH", "setting": "[1]", "result": "Gnetin C>Gnemonocide C≈Gnemonocide D>Gnemonocide A"}, {"measurement": "order of antimicrobial action of the identified ingredients", "setting": "[2]", "result": "Gnetin C>Gnemonocide C≈Gnemonocide D"}]}, {"substance": "Gnemonocide D", "values": [{"measurement": "order of scavenging radical action (antioxidative effect) to DPPH", "setting": "[1]", "result": "Gnetin C>Gnemonocide C≈Gnemonocide D>Gnemonocide A"}, {"measurement": "order of antimicrobial action of the identified ingredients", "setting": "[2]", "result": "Gnetin C>Gnemonocide C≈Gnemonocide D"}]}, {"substance": "Gnemonocide A", "values": [{"measurement": "order of scavenging radical action (antioxidative effect) to DPPH", "setting": "[1]", "result": "Gnetin C>Gnemonocide C≈Gnemonocide D>Gnemonocide A"}, {"measurement": "order of antimicrobial action of the identified ingredients", "setting": "[2]", "result": "does not show the antimicrobial action"}]}]}
